molecular target: T1, human adenosine A2A receptor (Homo sapiens, UniProt P29274); experiment: Human adenosine A2A receptor [3H]-SCH-583261 binding assay (SPA, CHO cell membranes); details: [3H]-SCH-583261 1 nM; membranes of CHO cells expressing the recombinant receptor; Ki by Cheng-Prussoff equation; read-out: hA2 (pKi) (converted)
T1 construct: expressed in transfected cells; host or cells: CHO cells, semliki forest virus expression system; membrane preparation
Method: Human Adenosine A2A Receptor
The human adenosine A2A receptor was recombinantly expressed in chinese hamster ovary (CHO) cells using the semliki forest virus expression system. Cells were harvested, washed twice by centrifugation, homogenised and again washed by centrifugation. The final washed membrane pellet was suspended in a Tris (50 mM) buffer containing 120 mM NaCl, 5 mM KCl, 2 mM CaCl2 and 10 mM MgCl2 (pH 7.4) (buffer A). The [^3H]-SCH-583261 (Dionisotti et al., 1997, Br J Pharmacol 121, 353; 1 nM) binding assay was carried out in 96-well plates in the presence of 2.5 μg of membrane protein, 0.5 mg of Ysi-poly-1-lysine SPA beads and 0.1 U adenosine deaminiase in a final volume of 200 μl of buffer A. Non-specific binding was defined using xainthine amine congener (XAC; 2 μM). Compounds were tested at 10 concentrations from 10 μM-0.3 nM. All assays were conducted in duplicate and repeated at least two times. Assay plates were incubated for 1 hour at room temperature before centrifugation and then bound ligand determined using a Packard Topcount scintillation counter. IC50 values were calculated using a non-linear curve fitting program and Ki values calculated using the Cheng-Prussoff equation.

T1 sequence (P29274 whole entry): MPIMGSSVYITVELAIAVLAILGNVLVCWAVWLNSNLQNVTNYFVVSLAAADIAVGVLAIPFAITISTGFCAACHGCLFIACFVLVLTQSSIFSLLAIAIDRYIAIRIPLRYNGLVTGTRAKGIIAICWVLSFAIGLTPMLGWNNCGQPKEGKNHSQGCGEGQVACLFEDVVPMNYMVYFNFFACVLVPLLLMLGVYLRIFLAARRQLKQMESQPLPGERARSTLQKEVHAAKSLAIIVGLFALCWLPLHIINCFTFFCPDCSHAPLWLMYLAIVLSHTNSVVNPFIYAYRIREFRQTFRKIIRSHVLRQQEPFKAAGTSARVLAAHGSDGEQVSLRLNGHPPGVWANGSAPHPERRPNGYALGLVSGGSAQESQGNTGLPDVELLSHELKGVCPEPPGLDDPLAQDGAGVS

SMILES	Ki [nM]
COc1ccc(C(=O)Nc2nc3c(OC)ccc(N4CCOCC4)c3s2)cn1 [Example 35, 6-Methoxy-N-(4-methoxy-7-morpholin-4-yl-benzothiazol-2-yl)-nicotinamide]	2
COc1ccc(N2CCOCC2)c2sc(NC(=O)c3ccnc(N4CCS(=O)(=O)CC4)c3)nc12 [Example 73, 2-(1,1-Dioxo-1l6-thiomorpholin-4-yl)-N-(4-methoxy-7-morpholin-4-yl-benzothiazol-2-yl)-isonicotinamide]	1.82
COc1ccc(N2CCOCC2)c2sc(NC(=O)c3ccnc(NCCN4CCOCC4)c3)nc12 [Example 18, N-(4-Methoxy-7-morpholin-4-yl-benzothiazol-2-yl)-2-(2-morpholin-4-yl-ethylamino)-isonicotinamide]	0.617
COc1ccc(N2CCOCC2)c2sc(NC(=O)c3ccnc(N4CC(O)C4)c3)nc12 [Example 74, 2-(3-Hydroxy-azetidin-1-yl)-N-(4-methoxy-7-morpholin-4-yl-benzothiazol-2-yl)-isonicotinamide]	1.35
COc1ccc(N2CCOCC2)c2sc(NC(=O)c3ccnc(CNCCCC(=O)OC(C)(C)C)c3)nc12 [Example 62, 4-{[4-(4-Methoxy-7-morpholin-4-yl-benzothiazol-2-yl-carbamoyl)-pyridin-2-yl-methyl]-amino}-butyric Acid tert-Butyl Ester]	1.58
CCOC1CN(c2cc(C(=O)Nc3nc4c(OC)ccc(N5CCOCC5)c4s3)ccn2)C1 [Example 76, 2-(3-Ethoxy-azetidin-1-yl)-N-(4-methoxy-7-morpholin-4-yl-benzothiazol-2-yl)-isonicotinamide]	1.74
CCOc1cc(C(=O)Nc2nc3c(OC)ccc(N4CCOCC4)c3s2)ccn1 [Example 3, 2-Ethoxy-N-(4-methoxy-7-morpholin-4-yl-benzothiazol-2-yl)-isonicotinamide]	3.09
COc1ccc(N2CCOCC2)c2sc(NC(=O)c3ccnc(N4CCC4)c3)nc12 [Example 26, 2-Azetidin-1-yl-N-(4-methoxy-7-morpholin-4-yl-benzothiazol-2-yl)-isonicotinamide]	0.955

Second part, the compound after the results:

Ki [nM]	SMILES
1.58	CCSCc1cc(C(=O)Nc2nc3c(OC)ccc(N4CCOCC4)c3s2)ccn1 [Example 103, 2-Ethylsulfanylmethyl-N-(4-methoxy-7-morpholin-4-yl-benzothiazol-2-yl)-isonicotinamide]
3.16	CCOCCN(C)Cc1cc(C(=O)Nc2nc3c(OC)ccc(N4CCOCC4)c3s2)ccn1 [Example 104, 2-{[(2-Ethoxy-ethyl)-methyl-amino]-methyl}-N-(4-methoxy-7-morpholin-4-yl-benzothiazol-2-yl)-isonicotinamide]
0.851	COc1ccc(N2CCOCC2)c2sc(NC(=O)c3ccnc(OCCN4CCOCC4)c3)nc12 [Example 87, N-(4-Methoxy-7-morpholin-4-yl-benzothiazol-2-yl)-2-(2-morpholin-4-yl-ethoxy)-isonicotinamide]
1.58	COc1ccc(N2CCOCC2)c2sc(NC(=O)c3ccnc(OCCNC(C)=O)c3)nc12 [Example 92, 2-(2-Acetylamino-ethoxy)-N-(4-methoxy-7-morpholin-4-yl-benzothiazol-2-yl)-isonicotinamide]
0.457	COc1ccc(N2CCOCC2)c2sc(NC(=O)c3ccnc(NCCN(C)C)c3)nc12 [Example 88, 2-(2-Dimethylamino-ethylamino)-N-(4-methoxy-7-morpholin-4-yl-benzothiazol-2-yl)-isonicotinamide]
2.24	COc1ccc(N2CCOCC2)c2sc(NC(=O)c3ccnc(N(C)CCc4ccccc4)c3)nc12 [Example 97, N-(4-Methoxy-7-morpholin-4-yl-benzothiazol-2-yl)-2-(methyl-phenethyl-amino)-isonicotinamide]
2	COc1ccc(N2CCOCC2)c2sc(NC(=O)c3ccnc(CN4CCC(O)CC4)c3)nc12 [Example 102, 2-(4-Hydroxy-piperidin-1-yl-methyl)-N-(4-methoxy-7-morpholin-4-yl-benzothiazol-2-yl)-isonicotinamide]
1.26	COc1cc(C(=O)Nc2nc3c(OC)ccc(-c4ccccc4)c3s2)ccn1 [Example 101, 2-Methoxy-N-(4-methoxy-7-phenyl-benzothiazol-2-yl)-isonicotinamide]

test system: not given; experiment: not given; details: not given

melting point [°C]	SMILES
158 to 159	CCSCc1cc(C(=O)Nc2nc3c(OC)ccc(N4CCOCC4)c3s2)ccn1 [Example 103, 2-Ethylsulfanylmethyl-N-(4-methoxy-7-morpholin-4-yl-benzothiazol-2-yl)-isonicotinamide]
93 to 96	COC[C@H]1CCN(Cc2cc(C(=O)Nc3nc4c(OC)ccc(N5CCOCC5)c4s3)ccn2)C1 [Example 106, (S)-2-(3-Methoxymethyl-pyrrolidin-1-ylmethyl)-N-(4-methoxy-7-morpholin-4-yl-benzothiazol-2-yl)-isonicotinamide]
159 to 160	CCOCCN(C)Cc1cc(C(=O)Nc2nc3c(OC)ccc(N4CCOCC4)c3s2)ccn1 [Example 104, 2-{[(2-Ethoxy-ethyl)-methyl-amino]-methyl}-N-(4-methoxy-7-morpholin-4-yl-benzothiazol-2-yl)-isonicotinamide]
228 to 230	COc1ccc(N2CCOCC2)c2sc(NC(=O)c3ccnc(CN(C)C(C)=O)c3)nc12 [Example 108, 2-[(Acetyl-methyl-amino)-methyl]-N-(4-methoxy-7-morpholin-4-yl-benzothiazol-2-yl)-isonicotinamide]
110 to 113	COC[C@@H]1CCCN1Cc1cc(C(=O)Nc2nc3c(OC)ccc(N4CCOCC4)c3s2)ccn1 [Example 105, (S)-2-(2-Methoxymethyl-pyrrolidin-1-ylmethyl)-N-(4-methoxy-7-morpholin-4-yl-benzothiazol-2-yl)-isonicotinamide]
125	COc1ccc(N2CCOCC2)c2sc(NC(=O)c3ccnc(CN4CCC(O)CC4)c3)nc12 [Example 102, 2-(4-Hydroxy-piperidin-1-yl-methyl)-N-(4-methoxy-7-morpholin-4-yl-benzothiazol-2-yl)-isonicotinamide]
264 to 265	COc1ccc(N2CCOCC2)c2sc(NC(=O)c3ccnc(Cn4ccnc4C)c3)nc12 [Example 107, N-(4-Methoxy-7-morpholin-4-yl-benzothiazol-2-yl)-2-(2-methyl-imidazol-1-ylmethyl)-isonicotinamide]

Reference: patent publication US6620811B2, “Isonicotin- and nicotinamide derivatives of benzothiazoles” (Hoffmann-La Roche Inc., priority 2001, dated 2003)
